Data on 19 compounds can be found in patent US20100081661A1, “HEME OXYGENASE INHIBITORS, SCREENING METHODS FOR HEME OXYGENASE INHIBITORS AND METHODS OF USE OF HEME OXYGENASE INHIBITORS FOR ANTIMICROBIAL THERAPY” (UNIVERSITY OF MARYLAND, BALTIMORE, priority 2006, published 2010).

Structures are written as SMILES. Where two headings read alike, the source gives them in different places.

The target in assay [1] is T1, pa-HO (Pseudomonas aeruginosa, UniProt O69002). Briefly: biochemical. It counts as binding. Conditions: for Kd: read-out: Fluorescence pa-HO Kd.
T1 sequence (O69002 1-198): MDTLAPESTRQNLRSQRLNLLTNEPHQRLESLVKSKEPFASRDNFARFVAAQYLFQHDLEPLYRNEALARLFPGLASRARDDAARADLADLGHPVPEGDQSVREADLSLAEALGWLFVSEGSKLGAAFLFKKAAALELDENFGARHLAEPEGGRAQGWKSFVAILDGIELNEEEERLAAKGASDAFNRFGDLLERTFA
The target in assay [2] is T2, nm-HO (Neisseria meningitidis, UniProt Q9AH50). Kind of assay: biochemical. It is filed as binding.
T2 sequence (Q9AH50 1-209): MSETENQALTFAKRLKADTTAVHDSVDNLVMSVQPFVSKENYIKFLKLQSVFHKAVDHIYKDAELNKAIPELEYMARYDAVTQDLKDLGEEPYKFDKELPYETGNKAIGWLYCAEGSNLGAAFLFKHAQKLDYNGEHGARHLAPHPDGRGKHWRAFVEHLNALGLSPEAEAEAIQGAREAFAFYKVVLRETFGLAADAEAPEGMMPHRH
Assay [3] deals with T1, pa-HO. It counts as binding. Conditions: for NMR sat. transfer: Table 2, paHO; for NMR pa-HO: Table 3A.
Assay [4] deals with T2, nm-HO. It counts as cell-based. On the set-up: key to E. coli assay biliverdin pigmentation: + biliverdin observed in cell pellet; − biliverdin not observed.
A further assay relates to P. aeruginosa. Briefly: MIC50 for P. aeruginosa. It is filed as cell-based, Pseudomonas aeruginosa. Conditions: for MIC / minimum inhibition conc: Table 2; for MIC: read-out: minimum inhibition conc.
In the next assay the test system is C. elegans. Kind of assay: C. elegans assay (infected worms). It counts as in vivo. The settings on record: for C. elegans: Table 3A, infected worms.
The next assay concerns P. aeruginosa MPA01. It counts as cell-based. The settings on record: 500 μM and above.
[5] abbreviates: Table 2, colour of cell pellet (white = no biliverdin, green = biliverdin) or toxicity to cells.
Where [6] appears, read: Table 3B, nm-HO in E. coli expression system.
Setting [7] is: Pseudomonas aeruginosa, Table 3A, read-out: MIC 50.
Setting [8] is: Table 4, target not named, values match nm-HO of Table 3A.
[9] abbreviates: Pseudomonas aeruginosa, Table 3B, P. aeruginosa, read-out: MIC 50.
For NMR pa-HO in this document: key: Shows binding by NMR method = +; Ambig = ambiguous.

For the compound `CN(C)c1ccc(/C=N/NC(=N)N)cc1` [Compound 1], the fluorescence binding result on pa-HO [1] is reported as “yes”. In addition, the equilibrium dissociation constant (Kd) (in general, a measure of binding affinity in units of concentration) at pa-HO [1] (Table 3A) was 30.1 µM; on nm-HO [2] (Table 3A, read-out: Fluorescence nm-HO Kd), 22.9 µM; at nm-HO [2] (Table 4, target not named, values match nm-HO of Table 3A, read-out: Kd), 22.9 µM. Also, on pa-HO [3], the NMR sat. transfer entry is on record as “yes, bind paHO”. Besides, the “NMR pa-HO” value at pa-HO [3] is recorded as “+”. Also, the “E. coli assay biliverdin pigmentation” value on nm-HO [4] (E. coli cells expressing nm-HO, cell pellet) is given as “−”. Besides, the E. coli assay result at nm-HO [4] (setting [5]) is on record as “white pellet”; at nm-HO [4] (Table 4), “White pellet”. The “Biliverdin detection from E. coli Assay” value at nm-HO [4] (Table 3A, pellet colour) is reported as “White pellet”; on nm-HO [4] (setting [6]) it was “White pellet”. The MIC with P. aeruginosa (Pseudomonas aeruginosa) was > 160 µg/mL. Besides, the MIC50 was > 160 µg/mL in the assay with P. aeruginosa (setting [7]) and >160 µg/mL against P. aeruginosa (Table 3B, P. aeruginosa). The C. elegans assay entry in the assay on C. elegans (Table 2) is “yes”.

For the compound `NC(=O)c1ccc(NC(=O)/C=C\C(=O)O)cc1Cl` [Compound 8], the E. coli assay result on nm-HO [4] (setting [5]) is reported as “green pellet”; on nm-HO [4] (Table 4), “Green Pellet”. Also, the “Biliverdin detection from E. coli Assay” value is given as “Green Pellet” on nm-HO [4] (Table 3A, pellet colour) and “Green Pellet” at nm-HO [4] (setting [6]). Moreover, in the assay with P. aeruginosa (Pseudomonas aeruginosa), the MIC is > 750 µg/mL. For the same compound, the MIC50 in the assay with P. aeruginosa (setting [7]) is > 750 µg/mL; in the assay on P. aeruginosa (Table 3B, P. aeruginosa), >750 µg/mL.

Regarding `O=C(NNC(=O)c1ccncc1)c1ccncc1` [Compound 24], the fluorescence binding result on pa-HO [1] was “Alias: CD-18 (Compound 7 in manuscript) fluorescence binding: yes minimum inhibition conc: nd NMR sat. transfer: nd E. coli assay: green pellet”. The E. coli assay result was “Alias: CD-18 (Compound 7 in manuscript) fluorescence binding: yes minimum inhibition conc: nd NMR sat. transfer: nd E. coli assay: green pellet” on nm-HO [4] (setting [5]) and “Green Pellet” on nm-HO [4] (Table 5). The “Biliverdin detection from E. coli Assay” value at nm-HO [4] (Table 3A, pellet colour) was “Green Pellet”; at nm-HO [4] (setting [6]), “Green Pellet”.

For `O=C(Cc1ccc([N+](=O)O)cc1)N/N=C/c1ccc(O)cc1` [Compound 44], the Kd at nm-HO [2] stood at 12.3 µM. Further, on pa-HO [3], the NMR sat. transfer entry is listed as “Alias: CB-22 fluorescence binding: nd minimum inhibition conc: nd NMR sat. transfer: tested, ambiguous” and the “NMR pa-HO” value is listed as “Ambig”.

As to `O=C(O)CCC(=O)Nc1ccc(Oc2ccccc2)cc1` [Compound 48], on pa-HO [3], the NMR sat. transfer result is recorded as “do not bind paHO”. Also, at nm-HO [4] (setting [5]), the E. coli assay result is “white pellet”.

As for `COc1ccc(C(=O)CCC(=O)O)c(C)c1` [Compound 59], the fluorescence binding result on pa-HO [1] is reported as “yes”. Further, on pa-HO [3], the NMR sat. transfer entry is given as “yes, bind paHO” and the “NMR pa-HO” value is recorded as “+”. For the same compound, the MIC in the assay on P. aeruginosa (Pseudomonas aeruginosa) is > 1000 µg/mL. Further, the MIC50 in the assay on P. aeruginosa (setting [7]) was > 1000 µg/mL. Moreover, the “MIC50” value against P. aeruginosa (Table 3B, P. aeruginosa) is >1000 µg/mL.

In the case of `O=C(O)/C=C\C(=O)Nc1ccc(Nc2ccccc2)cc1` [Compound 75], the fluorescence binding entry at pa-HO [1] is “yes”. Also, the values for the Kd on pa-HO [1] (Table 3A) and at nm-HO [2] were 20.1 µM and 15.6 µM, respectively. Besides, the E. coli assay entry at nm-HO [4] (setting [5]) was “white pellet”; at nm-HO [4] (Table 4) it was “White pellet”. Further, the “Biliverdin detection from E. coli Assay” value is on record as “White pellet” on nm-HO [4] (Table 3A, pellet colour) and “White pellet” at nm-HO [4] (setting [6]). The MIC in the assay on P. aeruginosa (Pseudomonas aeruginosa) is > 1000 µg/mL. In addition, the MIC50 with P. aeruginosa (setting [7]) was > 1000 µg/mL; with P. aeruginosa (Table 3B, P. aeruginosa), >1000 µg/mL. For the same compound, the C. elegans result in the assay on C. elegans is recorded as “no effect”.

Turning to `NCc1ccc2c3c(cccc13)C(=O)N2` [Compound 87], on pa-HO [3], the NMR sat. transfer entry was “yes, bind paHO” and the “NMR pa-HO” value is recorded as “+”. Besides, the MIC in the assay with P. aeruginosa (Pseudomonas aeruginosa) is > 125 µg/mL. The MIC50 in the assay with P. aeruginosa (setting [7]) is > 125 µg/mL. Moreover, the “MIC50” value in the assay with P. aeruginosa (Table 3B, P. aeruginosa) is >125 µg/mL. Also, in the assay with C. elegans, the C. elegans entry is listed as “Inconclusive”.

Take `O=C1C=C(Nc2ccccc2O)c2ccccc2C1=O` [Compound 114]: the fluorescence binding result on pa-HO [1] is listed as “yes”. Besides, the dissociation constant Kd at nm-HO [2] is 28.8 µM. For the same compound, the E. coli assay entry at nm-HO [4] (setting [5]) is “toxic to cells”; on nm-HO [4] (Table 6), “Toxic”. Besides, the “Biliverdin detection from E. coli Assay” value on nm-HO [4] (Table 3A, pellet colour) is recorded as “Toxic”; at nm-HO [4] (setting [6]), “Toxic”.

As for `CC(=O)Nc1ccc(/N=C/c2ccco2)cc1` [Compound 119], at pa-HO [1], the fluorescence binding result is “yes”. On pa-HO [3], the NMR sat. transfer entry is “do not bind paHO”.

For the compound `O=C(Cc1ccc(Cl)cc1)N/N=C/c1c[nH]c2ccccc12` [Compound 126], the fluorescence binding entry on pa-HO [1] is “yes”. Further, the Kd on pa-HO [1] (Table 3A) amounted to 15.8 µM; on nm-HO [2] it was 14.1 µM; on nm-HO [2] (setting [8]), 14.1 µM. Besides, the E. coli assay entry was “white pellet” on nm-HO [4] (setting [5]) and “White pellet” at nm-HO [4] (Table 4). In addition, the “Biliverdin detection from E. coli Assay” value is “White pellet” at nm-HO [4] (Table 3A, pellet colour) and “White pellet” at nm-HO [4] (setting [6]). In addition, the MIC50 with P. aeruginosa (setting [9]) was > 1000 µg/mL. Besides, the minimum inhibition conc result in the assay on P. aeruginosa is on record as “no antibacterial activity”. Moreover, in the assay on P. aeruginosa (Table 3A), the “MIC 50 (ug/ml)” value is “no antibact activity”.

For the compound `NCC(=O)N(O)Cc1ccccc1` [Compound 127], at pa-HO [3], the NMR sat. transfer entry was “yes, bind paHO”. Besides, the “NMR pa-HO” value on pa-HO [3] is “+”. Also, in the assay with P. aeruginosa (Pseudomonas aeruginosa), the MIC was > 1000 µg/mL. For the same compound, the MIC50 in the assay with P. aeruginosa (setting [7]) was > 1000 µg/mL; in the assay with P. aeruginosa (Table 3B, P. aeruginosa), >1000 µg/mL.

Take `NCC(O)(c1ccc(Cl)cc1)c1ccc(Cl)cc1` [Compound 131]: on pa-HO [3], the NMR sat. transfer entry is given as “yes, bind paHO” and the “NMR pa-HO” value was “+”. Also, the MIC with P. aeruginosa (Pseudomonas aeruginosa) was > 250 µg/mL. The MIC50 in the assay with P. aeruginosa (setting [7]) was > 250 µg/mL. Moreover, in the assay with P. aeruginosa (Table 3B, P. aeruginosa), the “MIC50” value was >250 µg/mL.

`O=C(c1ccco1)C12CN3CN(CN(C3)C1)C2` [Compound 133]: the values for the E. coli assay result at nm-HO [4] (setting [5]) and on nm-HO [4] (Table 4) were “Alias: CB-9 fluorescence binding: nd minimum inhibition conc: nd NMR sat. transfer: nd E. coli assay: green pellet” and “Green Pellet”, respectively. The “Biliverdin detection from E. coli Assay” value at nm-HO [4] (Table 3A, pellet colour) is given as “Green Pellet”; on nm-HO [4] (setting [6]), “Green Pellet”. Further, the MIC50 was > 380 µg/mL with P. aeruginosa (setting [7]) and >380 µg/mL against P. aeruginosa (Table 3B, P. aeruginosa).

In the case of `Cl.N=C(N/N=C\c1cccnc1)N/N=C\c1cccnc1` [Compound 148], the fluorescence binding entry at pa-HO [1] was “Alias: CB-31 Compound 1 in manuscript fluorescence binding: yes minimum inhibition conc: no antibacterial activity NMR sat. transfer: E. coli assay: white pellet”. Besides, the equilibrium dissociation constant (Kd) at pa-HO [1] was found to be 15.9 µM; on nm-HO [2], 12.2 µM; at nm-HO [2] (setting [8]), 12.2 µM. Also, the values for the E. coli assay entry at nm-HO [4] (setting [5]) and at nm-HO [4] (Table 4) were “white pellet” and “White pellet”, respectively. For the same compound, the “Biliverdin detection from E. coli Assay” value was “White pellet” on nm-HO [4] (Table 3A, pellet colour) and “White pellet” at nm-HO [4] (setting [6]). In the assay with P. aeruginosa (setting [9]), the MIC50 was > 1000 µg/mL. Also, the minimum inhibition conc result in the assay on P. aeruginosa is listed as “no antibacterial activity”. The “MIC 50 (ug/ml)” value in the assay with P. aeruginosa (Table 3A) is given as “no antibact activity”.

In the case of `CCN(CC)c1ccc(/C=N/n2nnnc2N)c(O)c1` [Compound 149], the fluorescence binding result on pa-HO [1] is “yes”. At pa-HO [3], the NMR sat. transfer entry was “do not bind paHO”.

As to `O=C(O)CN1C(=O)c2ccccc2C1=O` [Compound 150], the fluorescence binding entry at pa-HO [1] is “yes”. On pa-HO [3], the NMR sat. transfer entry is “yes, bind paHO” and the “NMR pa-HO” value was “+”. In addition, the MIC50 in the assay with P. aeruginosa (setting [9]) was > 1000 µg/mL. For the same compound, in the assay on P. aeruginosa, the minimum inhibition conc entry is reported as “no antibacterial activity”. In the assay on P. aeruginosa (Table 3A), the “MIC 50 (ug/ml)” value is on record as “no antibact activity”.

On to `Cn1c(=O)c(CC(=O)C(=O)O)nc2ccccc21` [Compound 152], for which, at pa-HO [3], the NMR sat. transfer result is “yes, bind paHO” and the “NMR pa-HO” value is on record as “+”. The MIC50 with P. aeruginosa (setting [9]) was > 1000 µg/mL. The minimum inhibition conc entry in the assay on P. aeruginosa was “no antibacterial activity”. The “MIC 50 (ug/ml)” value in the assay with P. aeruginosa (Table 3A) was “no antibact activity”.

On to `O=C(O)/C=C\C(=O)Nc1ccc(Nc2ccccc2)cc1` [chembridge010392], for which the “inhibitory effect in the presence of Fe(III)-pyoverdine” value with P. aeruginosa MPA01 was “slight inhibitory effect”.
